Experimental findings from paper PMC9256669, “Monomethyl auristatin antibody and peptide drug conjugates for trimodal cancer chemo-radio-immunotherapy” (Nature Communications, 2022) are described below.

Data set [1] is described as follows: Blood clearance of Cy5-labeled CDX3379-MMAE (blood Cy5). The data set is classed as in vivo, Nude mice. The note with it: immune-deficient and immune-competent mice, i.v. Cy5-labeled CDX3379-MMAE, Cy5 as surrogate marker. How it is done:
All animal work was done in compliance with the University of California San Diego Institutional Animal Use and Care Committee under protocol #S15290. Mice were housed in individually ventilated and micro-isolator cages supplied with acidified water and fed 5053 irradiated PicoLab Rodent Diet 20. Temperature for laboratory mice in housing was 18–23 °C with humidity 40–60%. Housing room is maintained on a 12-h light/dark cycle. […] For imaging, mice were anesthetized (1:1 mixture of 100 mg/ml of ketamine and 5 mg/ml of midazolam). Animals were imaged using a Maestro Small Animal Imager (CRI) with excitation filter of 607/36 and 633 nm long pass emission filter with dichroic filter tuned to 670 nm for Cy5 images only. Imaging was done both with skin on and after skin removal to decrease autofluorescence and scattering. Exposure time for Cy5 signal capture for tumor models was as follows: CAL27 for 800 ms, MOC1 for 200 ms and MOC2 for 1500 ms.

The test system of data set [2] is LL/2 cells. The data set is described as follows: Clonogenic survival with MMAE and 2 Gy (SF2). The data set is classed as cell-based, murine. Also noted: key: fraction surviving 2 Gy relative to non-irradiated cells. How it is done:
Cells were treated with MMAE for 24 h and then irradiated with 2 Gy. […] Following IR, cells were counted, re-plated at varying cell numbers in drug free media. 10–14 days after initial seeding formed colonies were methanol fixed, stained with crystal violet, and counted. Surviving fraction at 2 Gy (SF2) was calculated as the fraction of cells surviving 2 Gy compared to non-irradiated cells. […]

Data set [3] relates to B16. The data set is described as follows: Cytotoxicity, Alamar Blue assay. The data set is classed as cell-based, murine. The note with it: B16, 72 h drug exposure, one value per biological replicate, read-out: IC50 values. As for the experimental part:
(§1) Murine colorectal (MC38 (ENH204-FP)) cancer cell lines were obtained from Kerafast. Murine head and neck MOC1 and MOC2 were generously provided by Dr. R. Uppaluri. CAL27 PIK3CA H1047R expressing cells and 4MOSC1 cells were generated in Dr. Gutkind’s laboratory and previously characterized[42],[55]. […] MC38 cells were cultured in DMEM supplemented with 10% FBS, 1 mM sodium pyruvate (Gibco), 1% non-essential amino acids (Gibco), and 10 mM HEPES (Gibco). MOC1 and MOC2 cells were cultured in IMDM (Lonza)/F-12K nutrient mixture at a 2:1 mixture with 5% FBS, 5 ng/ml EGF (EMD Millipore), 400 ng/ml hydrocortisone (Sigma), and […] insulin (Sigma). On receipt, each cell line was expanded, cryopreserved as low passage stocks, and routinely tested for mycoplasma. Cisplatin (Enzo Biosciences), paclitaxel (Sigma), and MMAE (Concortis) were reconstituted in DMSO. Clinical-grade CDX3379 was provided by Celldex. Clinical grade cetuximab (Erbitux, Lilly Medical) was obtained from UCSD Moores Cancer Center Pharmacy.
(§2) Cells were plated in 96-well plates and exposed to a drug concentration range for 72 h. Alamar Blue was added to the cells and allowed to incubate for 2–4 h at 37 °C. Plates were analyzed using a plate reader with fluorescence measured at 560 nm. Fractional survival was normalized to untreated control cell fluorescent values. Drug IC50 was calculated using Prism software (GraphPad, La Jolla, CA). Cell viability, cytotoxicity and apoptosis were also measured by ApoTox-Glo Triplex Assay (Promega).

The subject of data set [4] is MC38. Briefly: Cytotoxicity, Alamar Blue assay. It is filed as cell-based, murine. The note with it: MC38, 72 h drug exposure, one value per biological replicate, read-out: IC50 values. As for the experimental part:
as §1, §2

Data set [5] relates to 4MOSC1. The data set is described as follows: Cytotoxicity, Alamar Blue assay. It is filed as cell-based, murine. The note with it: 4MOSC1, 72 h drug exposure, one value per biological replicate, read-out: IC50 values. As for the experimental part:
as §1, §2

Values joined by “and” are separate entries in the source; they are usually repeats but may differ in a detail not shown here. Equal entries are not always repeated. Non-standard residues stand in square brackets, D forms with d. Residues, ends and D or L forms follow the SMILES beside them. *: point of attachment. Dolaproine = CO[C@@H]([C@@H]1CCCN1)[C@@H](C)C(=O)O; Dil = CC[C@H](C)[C@H](NC)[C@@H](CC(=O)O)OC; X1 = C[C@@H](N*)[C@@H](O)c1ccccc1; NMeV = CN[C@H](C(=O)O)C(C)C

Turning to “CDX3379-MMAE: anti-HER3 antibody CDX3379 with 4 MMAE per antibody via MC-VC-PABC linker, labeled with Cy5”, the “time at which blood Cy5 signal returned to background fluorescence” value in data set [1] was at most 7 days.

As to `CC[C@H](C)[C@@H]([C@@H](CC(=O)N1CCC[C@H]1[C@H](OC)[C@@H](C)C(=O)N[C@H](C)[C@@H](O)c1ccccc1)OC)N(C)C(=O)[C@@H](NC(=O)[C@@H](NC)C(C)C)C(C)C` [MMAE, monomethyl auristatin E] (H-[NMeV]V[Dil][Dolaproine]-X1), the SF2 was found to be 0.48 in data set [2] (MMAE 1 nM with 2 Gy, replicate 1); 0.48 in data set [2] (MMAE 1 nM with 2 Gy, replicate 2); 0.66 in data set [2] (MMAE 1 nM with 2 Gy, replicate 3); 0.44 in data set [2] (MMAE 1 nM with 2 Gy, replicate 4); 0.62 in data set [2] (MMAE 1 nM with 2 Gy, replicate 5); 0.64 in data set [2] (MMAE 1 nM with 2 Gy, replicate 6). In addition, the SF2 is 0.46 in data set [2] (MMAE 2 nM with 2 Gy, replicate 1); 0.53 in data set [2] (MMAE 2 nM with 2 Gy, replicate 2); 0.53 in data set [2] (MMAE 2 nM with 2 Gy, replicate 3); 0.41 in data set [2] (MMAE 2 nM with 2 Gy, replicate 4); 0.43 in data set [2] (MMAE 2 nM with 2 Gy, replicate 5); 0.43 in data set [2] (MMAE 2 nM with 2 Gy, replicate 6). For the same compound, the SF2 in data set [2] (MMAE 3 nM with 2 Gy, replicate 1) came to 0.29; in data set [2] (MMAE 3 nM with 2 Gy, replicate 2), 0.45; in data set [2] (MMAE 3 nM with 2 Gy, replicate 3), 0.38; in data set [2] (MMAE 3 nM with 2 Gy, replicate 4), 0.45; in data set [2] (MMAE 3 nM with 2 Gy, replicate 5), 0.26; in data set [2] (MMAE 3 nM with 2 Gy, replicate 6), 0.38. Also, the IC50 was 1.77 nM and 2.33 nM and 1.94 nM and 3.12 nM in data set [3]; 14.4 nM and 14.9 nM and 30.4 nM in data set [4]; 1.82 nM and 1.52 nM in data set [5].
